Results on 16 molecules are retold here after patent US20150051257A1, “SULPHONAMIDE DERIVATIVES OF BENZYLAMINE FOR THE TREATMENT OF CNS DISEASES” (ADAMED SP. Z O.O, priority 2012, published 2015).

In data set [1] the test system is α1 (non-selective). The data set is described as follows: Radioligand binding assay, adrenergic α1 receptors. To be noted: test compound 1×10^−6M; [3H]prazosin; rat cerebral cortex. The method, then:
(§1) Specific ligand binding to the receptors is defined as the difference between the total binding and the non-specific binding determined in the presence of an excess of unlabelled ligand.
(§2) The results are expressed as a percent of control specific binding ((measured specific binding/control specific binding)×100%) obtained in the presence of the test compounds. The compounds were tested for their affinity to receptors at a concentration of 1×10^−6M.
(§3) Conditions and methodology of in vitro tests are given by reference to the literature in Table 1, and the results of tests for representative compounds are given in Table 2 (dopaminergic receptors D2 and D3), in Table 3 (dopaminergic receptors D1 and D4.4), in Table 4 (serotoninergic receptors 5-HT1A, 5-HT2A, 5-HT6, 5-HT7), in table 5 (serotoninergic receptors 5-HT2C), in Table 6 (sigma o receptors), in Table 7 (adrenergic receptors α1, histaminergic receptors H1 and muscarinic receptors M3), in Table 8 (adrenergic receptors α2C) and in Table 9 (serotonin transporter receptors SERT).

The subject of data set [2] is σ (non-selective). The data set is described as follows: Radioligand binding assay, σ receptors. To be noted: test compound 1×10^−6M; [3H]DTG; rat cerebral cortex. Here is the method:
as §1, §2, §3

Data set [3] deals with T1, hERG potassium channels (KCNH2 gene, expressed in CHO cells) (Homo sapiens, UniProt Q12809).
T1 construct: expressed in transfected cells; host or cells: CHO cells
The data set is described as follows: Ability to block hERG potassium channel (electrophysiology, IonWorks Quattro). As to conditions: cloned hERG in CHO cells; test pulse +40 mV; concentration not given. It is filed as cell-based. The method, then:
Ability to Block hERG Potassium Channel Ability to block hERG potassium channels was determined using the electrophysiological method and cloned hERG potassium channels (KCNH2 gene, expressed in CHO cells) as biological material. The effects were evaluated using IonWorks™ Quattro system (MDS-AT).
hERG current was elicited using a pulse pattern with fixed amplitudes (conditioning pre-pulse: −80 mV for 25 ms; test pulse: +40 mV for 80 ms) from a holding potential of 0 mV. hERG current was measured as a difference between the peak current at 1 ms after the test step to +40 mV and the steady-state current at the end of the step to +40 mV.
Data acquisition and analyses were performed using the lonWorks Quattro™ system operation software (version 2.0.2; Molecular Devices Corporation, Union City, Calif.). Data were corrected for leak current.
The hERG block was calculated as: % Block=(1−I TA/IControl)×100%, where IControl and ITA were the currents elicited by the test pulse in control and in the presence of a test compound, respectively.
In general terms: hERG is a cardiac potassium channel; its block is linked to QT prolongation.

Molecules are shown by their SMILES.

T1 sequence (Q12809 whole entry): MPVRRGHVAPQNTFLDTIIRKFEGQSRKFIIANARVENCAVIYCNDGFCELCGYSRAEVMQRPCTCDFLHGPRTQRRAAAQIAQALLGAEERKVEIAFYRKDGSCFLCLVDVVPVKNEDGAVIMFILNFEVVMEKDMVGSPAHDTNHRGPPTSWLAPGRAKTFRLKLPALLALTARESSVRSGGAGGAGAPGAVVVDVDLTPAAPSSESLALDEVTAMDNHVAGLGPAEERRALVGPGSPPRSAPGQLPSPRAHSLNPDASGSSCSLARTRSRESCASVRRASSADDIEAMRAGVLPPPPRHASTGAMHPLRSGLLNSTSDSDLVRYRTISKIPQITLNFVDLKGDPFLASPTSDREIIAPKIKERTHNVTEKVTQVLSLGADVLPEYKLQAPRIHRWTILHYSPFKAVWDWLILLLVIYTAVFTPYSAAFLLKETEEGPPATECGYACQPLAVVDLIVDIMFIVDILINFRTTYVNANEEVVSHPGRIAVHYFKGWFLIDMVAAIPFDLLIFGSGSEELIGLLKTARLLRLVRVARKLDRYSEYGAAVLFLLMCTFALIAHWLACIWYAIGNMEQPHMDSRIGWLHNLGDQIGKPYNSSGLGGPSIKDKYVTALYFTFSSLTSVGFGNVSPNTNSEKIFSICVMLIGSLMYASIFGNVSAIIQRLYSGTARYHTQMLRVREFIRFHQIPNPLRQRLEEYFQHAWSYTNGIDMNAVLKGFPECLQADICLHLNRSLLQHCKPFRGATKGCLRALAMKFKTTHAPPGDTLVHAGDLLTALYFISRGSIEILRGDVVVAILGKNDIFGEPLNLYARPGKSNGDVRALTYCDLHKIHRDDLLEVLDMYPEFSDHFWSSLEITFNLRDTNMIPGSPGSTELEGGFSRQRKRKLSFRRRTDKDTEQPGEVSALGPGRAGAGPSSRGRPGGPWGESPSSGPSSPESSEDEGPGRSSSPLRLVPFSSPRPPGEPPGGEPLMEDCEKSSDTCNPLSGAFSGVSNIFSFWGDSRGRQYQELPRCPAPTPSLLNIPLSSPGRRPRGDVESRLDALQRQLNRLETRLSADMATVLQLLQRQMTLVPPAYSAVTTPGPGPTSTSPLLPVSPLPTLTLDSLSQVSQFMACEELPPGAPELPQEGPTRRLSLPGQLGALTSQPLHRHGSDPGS

Regarding `O=S(=O)(Nc1cccc(CNCCc2ccccc2)c1)c1ccc2ccccc2c1` [Compound 1, N-[3-[(phenylethylamino)methyl]phenyl]naphthalene-2-sulphonamide], the “α1 [%]” value in data set [1] is reported as 26%. The “σ [%]” value in data set [2] was 83%.

Regarding `O=S(=O)(Nc1cccc(CNCCc2cccc(Cl)c2)c1)c1ccc2ccccc2c1` [Compound 6, N-[3-[[2-(3-chlorophenyl)ethylamino]methyl]phenyl]naphthalene-2-sulphonamide], in data set [1], the “α1 [%]” value turned out to be 53%. For the same molecule, the “σ [%]” value in data set [2] is listed as 73%.

Regarding `Cc1cccc(CCNCc2cccc(NS(=O)(=O)c3ccc4ccccc4c3)c2)c1` [Compound 8, N-[3-[[2-(3-methylphenyl)ethylamino]methyl]phenyl]naphthalene-2-sulphonamide], the “α1 [%]” value in data set [1] is 17%. In data set [2], the “σ [%]” value was determined as 85%.

Regarding `COc1ccccc1CCNCc1cccc(NS(=O)(=O)c2ccc3ccccc3c2)c1` [Compound 9, N-[3-[[2-(2-methoxyphenyl)ethylamino]methyl]phenyl]naphthalene-2-sulphonamide], the “α1 [%]” value in data set [1] amounted to 56%.

For `COc1ccccc1OCCNCc1cccc(NS(=O)(=O)c2ccc3ccccc3c2)c1` [Compound 10, N-[3-[[2-(2-methoxyphenoxyl)ethylamino]methyl]phenyl]naphthalene-2-sulphonamide], the “α1 [%]” value in data set [1] is recorded as 20%. Moreover, the “σ [%]” value in data set [2] came to 74%.

Turning to `COc1cccc(CCNCc2cccc(NS(=O)(=O)c3ccc4ccccc4c3)c2)c1` [Compound 11, N-[3-[[2-(3-methoxyphenyl)ethylamino]methyl]phenyl]naphthalene-2-sulphonamide], in data set [1], the “α1 [%]” value is 18%. Besides, the “hERG [%] (% Block)” value in data set [3] is given as −4%. Further, the “σ [%]” value in data set [2] is recorded as 76%.

In the case of `COc1ccc(CCNCc2cccc(NS(=O)(=O)c3ccc4ccccc4c3)c2)cc1` [Compound 14, N-[3-[[2-(4-methoxyphenyl)ethylamino]methyl]phenyl]naphthalene-2-sulphonamide], in data set [1], the “α1 [%]” value is listed as 13%. Moreover, the “σ [%]” value in data set [2] was 54%.

In the case of `O=S(=O)(Nc1cccc(CNCCc2cccc(O)c2)c1)c1ccc2ccccc2c1` [Compound 17, N-[3-[[2-(3-hydroxyphenyl)ethylamino]methyl]phenyl]naphthalene-2-sulphonamide], the “α1 [%]” value in data set [1] is 31%. Moreover, the “σ [%]” value in data set [2] stood at 71%.

On to `O=S(=O)(Nc1cccc(CNCCOc2cccc3c2OCCO3)c1)c1ccc(I)cc1` [Compound 22, N-[3-[[2-(2,3-dihydro-1,4-benzodioxin-5-yloxy)ethylamino]methyl]phenyl]-4-iodobenzenesulphonamide], for which the “α1 [%]” value in data set [1] amounted to 84%. Also, in data set [2], the “σ [%]” value stood at 95%.

`O=S(=O)(Nc1cccc(CNCCOc2cccc3c2OCCO3)c1)c1cccc2ccccc12` [Compound 35, N-[3-[[2-(2,3-dihydro-1,4-benzodioxin-5-yloxy)ethylamino]methyl]phenyl]naphthalene-1-sulphonamide]: the “hERG [%] (% Block)” value in data set [3] was −1%.

`O=S(=O)(Nc1cccc(CNCCOc2cccc3c2OCCO3)c1)c1ccc2ccccc2c1` [Compound 36, N-[3-[[2-(2,3-dihydro-1,4-benzodioxin-5-yloxy)ethylamino]methyl]phenyl]naphthalene-2-sulphonamide]: the “hERG [%] (% Block)” value in data set [3] amounted to 1%.

On to `O=S(=O)(Nc1cccc(CNCCOc2cccc3c2OCCO3)c1)c1csc2ccccc12` [Compound 43, N-[3-[[2-(2,3-dihydro-1,4-benzodioxin-5-yloxy)ethylamino]methyl]phenyl]benzothiophene-3-sulphonamide], for which, in data set [3], the “hERG [%] (% Block)” value was determined as 10%.

On to `Cc1cccc(S(=O)(=O)Nc2cccc(CNCCOc3cccc4[nH]ccc34)c2)c1` [Compound 49, N-[3-[[2-(1H-indol-4-yloxy)ethylamino]methyl]phenyl]-3-methyl-benzenesulphonamide], for which the “α1 [%]” value in data set [1] is on record as 59%. Besides, the “hERG [%] (% Block)” value in data set [3] is given as 2%. Also, the “σ [%]” value in data set [2] amounted to 79%.

As to `O=S(=O)(Nc1cccc(CNCCOc2cccc3[nH]ccc23)c1)c1cccc2ccccc12` [Compound 51, N-[3-[[2-(1H-indol-4-yloxy)ethylamino]methyl]phenyl]naphthalene-1-sulphonamide], in data set [1], the “α1 [%]” value worked out at 34%. In addition, the “hERG [%] (% Block)” value in data set [3] is given as 1%. For the same molecule, the “σ [%]” value in data set [2] is 76%.

For `O=S(=O)(Nc1cccc(CNCCOc2cccc3[nH]ccc23)c1)c1ccc2ccccc2c1` [Compound 52, N-[3-[[2-(1H-indol-4-yloxy)ethylamino]methyl]phenyl]naphthalene-2-sulphonamide], the “α1 [%]” value in data set [1] came to 41%. Besides, the “hERG [%] (% Block)” value in data set [3] came out at 2%. Further, in data set [2], the “σ [%]” value worked out at 79%.

On to `CN(CCCc1noc2cc(F)ccc12)Cc1cccc(NS(=O)(=O)c2ccc(I)cc2)c1` [Compound 68, N-[3-[[3-(6-fluoro-1,2-benzoxazol-3-yl)propylmethylamino]methyl]phenyl]-4-iodobenzenesulphonamide], for which, in data set [1], the “α1 [%]” value stood at 84%. Besides, the “σ [%]” value in data set [2] is given as 73%.
